For the first assay, the target named is T1, HIV-integrase (Human immunodeficiency virus type 1 group M subtype B, UniProt P04585).
T1 construct: Recombinant integrase (0.26 ng) was incubated with the beads
Put plainly: in-vitro activity against HIV-integrase (HIV Integrase Inhibition, SPA bead assay). Type of assay: biochemical. To be noted: Table 1; recombinant integrase, activity class. As to the method: To evaluate in-vitro activity against HIV-integrase, 5 pmole of biotin labeled substrate DNA was bound to 100 μg of Streptavidin coated PVT SPA beads (Amersham Pharmacia Biotech). Recombinant integrase (0.26 ng) was incubated with the beads for 90 min at 37° C. Unbound enzyme was removed by washing the complex followed by addition of inhibitors and […] of P33 labeled target DNA. The reaction was stopped by adding EDTA to a final concentration of 10 mM. Samples were counted in TopCountNXT (Packard) and the CPM was used as a measure of integration. The reaction condition was as described in Engelman, A. and Craigie, R. J. Vitrol. 1996, 69, 5908. The sequences of substrate and target DNA were described in Nucleic Acid Research 1994, 22, 1121.
For the molecule `O=C(NCc1ccccc1F)c1nc2n(c(=O)c1O)CCOC21CCCC1` [Example 24, N-[(2-fluorophenyl)methyl]-6′,7′-dihydro-3′-hydroxy-4′-oxo-spiro[cyclopentane-1,9′(4′H)-pyrimido[2,1-c][1,4]oxazine]-2′-carboxamide], the IC50 lay in the range of 10 to 100 nM.

On to `CS(=O)(=O)c1cc(F)ccc1CNC(=O)c1nc2n(c(=O)c1O)CCC21CCCC1` [Example 85, N-[[4-fluoro-2-(methylsulfonyl)phenyl]methyl]-6′,7′-dihydro-3′-hydroxy-4′-oxo-spiro[cyclopentane-1,8′(4′H)-pyrrolo[1,2-α]pyrimidine]-2′-carboxamide], for which the IC50 was in the range of 1 to 10 nM.

As for `Cc1ncn(-c2cc(F)ccc2CNC(=O)c2nc3n(c(=O)c2O)CCOC32CCOCC2)n1` [Example 50, N-[[4-fluoro-2-(3-methyl-1H-1,2,4-triazol-1-yl)phenyl]methyl]-2,3,5,6,6′,7′-hexahydro-3′-hydroxy-4′-oxo-spiro[4H-pyran-4,9′(4′H)-pyrimido[2,1-c][1,4]oxazine]-2′-carboxamide], the IC50 lay in the range of 1 to 10 nM.

Consider `CC(NC(=O)c1nc2n(c(=O)c1O)CCCC21CCC1)c1ccc(F)cc1` (stereo not drawn) [Example 74, N-[1-(4-fluorophenyl)ethyl]-7′,8′-dihydro-3′-hydroxy-4′-oxo-spiro[cyclobutane-1,9′(6′H)-[4H]pyrido[1,2-α]pyrimidine]-2′-carboxamide], for which the IC50 was in the range of 10 to 100 nM.

Regarding `O=C(NCc1cccc(F)c1-n1cncn1)c1nc2n(c(=O)c1O)CCCC21CCCC1` [Example 12, N-[[3-fluoro-2-(1H-1,2,4-triazol-1-yl)phenyl]methyl]-7′,8′-dihydro-3′-hydroxy-4′-oxo-spiro[cyclopentane-1,9′(6′H)-[4H]pyrido[1,2-α]pyrimidine]-2′-carboxamide], the IC50 was in the range of 1 to 10 nM.

As for `O=C(NCc1ccc(F)cc1-n1cncn1)c1nc2n(c(=O)c1O)CCC21CCCC1` [Example 87, N-[[4-fluoro-2-(1H-1,2,4-triazol-1-yl)phenyl]methyl]-6′,7′-dihydro-3′-hydroxy-4′-oxo-spiro[cyclopentane-1,8′(4′H)-pyrrolo[1,2-α]pyrimidine]-2′-carboxamide], the IC50 lay in the range of 1 to 10 nM.

Consider `O=C(NCc1ccc(F)cc1-n1cncn1)c1nc2n(c(=O)c1O)CCCC21CCCC1` [Example 4, N-[[4-fluoro-2-(1H-1,2,4-triazol-1-yl)phenyl]methyl]-7′,8′-dihydro-3′-hydroxy-4′-oxo-spiro[cyclopentane-1,9′(6′H)-[4H]pyrido[1,2-α]pyrimidine]-2′-carboxamide], for which the IC50 was in the range of 1 to 10 nM.

Take `O=C(NCc1ccc(Cl)c(Cl)c1)c1nc2n(c(=O)c1O)CCOC21CCCC1` [Example 21, N-[(3,4-dichlorophenyl)methyl]-6′,7′-dihydro-3′-hydroxy-4′-oxo-spiro[cyclopentane-1,9′(4′H)-pyrimido[2,1-c][1,4]oxazine]-2′-carboxamide]: the IC50 fell in the range of 1 to 10 nM.

Regarding `O=C(NCCc1ccc(F)cc1)c1nc2n(c(=O)c1O)CCOC21CCCC1` [Example 30, N-[2-(4-fluorophenyl)ethyl]-6′,7′-dihydro-3′-hydroxy-4′-oxo-spiro[cyclopentane-1,9′(4H)-pyrimido[2,1-c][1,4]oxazine]-2′-carboxamide], the IC50 was in the range of 10 to 100 nM.

Turning to `O=C(NCc1ccc(F)cc1-n1cncn1)c1nc2n(c(=O)c1O)CCOC21CCCC1` [Example 17, N-[[4-fluoro-2-(1 H-1,2,4-triazol-1-yl)phenyl]methyl]-6′,7′-dihydro-3′-hydroxy-4′-oxo-spiro[cyclopentane-1,9′(4′H)-pyrimido[2,1-c][1,4]oxazine]-2′-carboxamide], the IC50 fell in the range of 1 to 10 nM.

On to `Cc1ccc(CNC(=O)c2nc3n(c(=O)c2O)CCOC32CCCC2)cc1F` [Example 27, N-[(3-fluoro-4-methylphenyl)methyl]-6′,7′-dihydro-3′-hydroxy-4′-oxo-spiro[cyclopentane-1,9′(4′H)-pyrimido[2,1-c][1,4]oxazine]-2′-carboxamide], for which the IC50 lay in the range of 1 to 10 nM.

The assay is the same for the next values; noted with them: Table 1a; recombinant integrase, activity class.
`O=C(NCc1ccc(F)cc1N1CCOC1=O)c1nc2n(c(=O)c1O)CCOC21CCC1` [Example 105, Spiro[cyclobutane-1,9′(4′H)-pyrimido[2,1-c][1,4]oxazine]-2′-carboxamide, N-[[4-fluoro-2-(2-oxo-3-oxazolidinyl)phenyl]methyl]-6′,7′-dihydro-3′-hydroxy-4′-oxo-]: the IC50 is 1 to 10 nM.

For `Cc1nnn(-c2cc(F)ccc2CNC(=O)c2nc3n(c(=O)c2O)CCCOC32CCC2)c1C` [Example 107, Spiro[cyclobutane-1,10′(4′H)-[6H]pyrimido[2,1-c][1,4]oxazepine]-2′-carboxamide, N-[[2-(4,5-dimethyl-1H-1,2,3-triazol-1-yl)-4-fluorophenyl]methyl]-7′,8′-dihydro-3′-hydroxy-4′-oxo-], the IC50 was 10 to 100 nM.

`Cc1cnnn1-c1cc(F)ccc1CNC(=O)c1nc2n(c(=O)c1O)CCOC21CCC1` [Example 104, Spiro[cyclobutane-1,9′(4′H)-pyrimido[2,1-c][1,4]oxazine]-2′-carboxamide, N-[[4-fluoro-2-(5-methyl-1H-1,2,3-triazol-1-yl)phenyl]methyl]-6′,7′-dihydro-3′-hydroxy-4′-oxo-]: the IC50 was 1 to 10 nM.

As to `CN1CCn2c(nc(C(=O)NCc3ccc(F)cc3)c(O)c2=O)C12CCCCC2` [Example 95, Spiro[cyclohexane-1,9′(6′H)-[4H]pyrazino[1,2-a]pyrimidine]-2′-carboxamide, N-[(4-fluorophenyl)methyl]-7′,8′-dihydro-3′-hydroxy-8′-methyl-4′-oxo-], the IC50 lay in the range of 1 to 10 nM.

For the molecule `CC(C)(C)c1cn(-c2cc(F)ccc2CNC(=O)c2nc3n(c(=O)c2O)CCOC32CCC2)nn1` [Example 103, Spiro[cyclobutane-1,9′(4′H)-pyrimido[2,1-c][1,4]oxazine]-2′-carboxamide, N-[[2-[4-(1,1-dimethylethyl)-1H-1,2,3-triazol-1-yl]-4-fluorophenyl]methyl]-6′,7′-dihydro-3′-hydroxy-4′-oxo-], the IC50 lay within 10 to 100 nM.

Turning to `Cc1ncn(-c2cc(F)ccc2CNC(=O)c2nc3n(c(=O)c2O)CCCOC32CCC2)n1` [Example 123, Spiro[cyclobutane-1,10′(4′H)-[6H]pyrimido[2,1-c][1,4]oxazepine]-2′-carboxamide, N-[[4-fluoro-2-(3-methyl-1H-1,2,4-triazol-1-yl)phenyl]methyl]-7′,8′-dihydro-3′-hydroxy-4′-oxo-], the IC50 was 1 to 10 nM.

On to `O=C(NCc1ccc(F)cc1)c1nc2n(c(=O)c1O)CCOC21COC1` [Example 109, Spiro[oxetane-3,9′(4′H)-pyrimido[2,1-c][1,4]oxazine]-2′-carboxamide, N-[(4-fluorophenyl)methyl]-6′,7′-dihydro-3′-hydroxy-4′-oxo-], for which the IC50 lay in the range of 1 to 10 nM.

With `Cc1nc(C)n(-c2cc(F)ccc2CNC(=O)c2nc3n(c(=O)c2O)CCOC32CCC2)n1` [Example 127, Spiro[cyclobutane-1,9′(4′H)-pyrimido[2,1-c][1,4]oxazine]-2′-carboxamide, N-[[2-(3,5-dimethyl-1H-1,2,4-triazol-1-yl)-4-fluorophenyl]methyl]-6′,7′-dihydro-3′-hydroxy-4′-oxo-], the IC50 fell in the range of 10 to 100 nM.

As to `CN1CCn2c(nc(C(=O)NCc3ccc(F)cc3)c(O)c2=O)C12CCCC2` [Example 92, Spiro[cyclopentane-1,9′(6′H)-[4H]pyrazino[1,2-a]pyrimidine]-2′-carboxamide, N-[(4-fluorophenyl)methyl]-7′,8′-dihydro-3′-hydroxy-8′-methyl-4′-oxo-], the IC50 lay within 1 to 10 nM.

(Values after US7419969B2 (Bristol-Myers Squibb Company, priority 2004, dated 2008).)
